Source: the Deep4Chem optical property database
One block for each molecule: values may come before it.

Assay: solvent given as SMILES

SMILES: c1ccc(N2c3ccc4ccccc4c3-c3c4ccccc4cn[n+]3[B-]2(c2ccccc2)c2ccccc2)cc1
emission maximum (in Cc1ccccc1): 657 nm

SMILES: CCC(C)(C)c1ccc2c(c1)C(CCOC)(CCOC)c1cc(-c3ccc(-c4ccc5c(c4)C(CCOC)(CCOC)c4cc(C(C)(C)CC)ccc4-5)cc3)ccc1-2
emission maximum (in C1CCCCC1): 380 nm

SMILES: C(#Cc1cc2ccc3cc(C#Cc4ccccc4)cc4ccc(c1)c2c34)c1ccccc1
emission maximum (in Cc1ccccc1): 418 nm

SMILES: COc1ccc(C#Cc2cc(C#Cc3ccc(OC)cc3)c(C#Cc3ccc(OC)cc3)c(C#Cc3ccc(OC)cc3)c2C#Cc2ccc(OC)cc2)cc1
emission maximum (in ClCCl): 437 nm

SMILES: CN(C)c1ccc(-c2cc3c(ccc4c([N+](=O)[O-])cccc43)c(=O)o2)cc1
emission maximum (in CC(C)=O): 530 nm
emission maximum (in CCOC(C)=O): 624 nm
emission maximum (in CN(C)C=O): 546 nm
emission maximum (in CO): 548 nm
emission maximum (in ClC(Cl)Cl): 634 nm

SMILES: CCCCCCCCCCCCCCCCOc1cc(C#Cc2ccc3ccccc3c2)c(OCCCCCCCCCCCCCCCC)cc1C#Cc1ccc(C=C(C#N)C#N)cc1
emission maximum (in Brc1ccccc1): 582 nm
emission maximum (in C1CCCCC1): 484 nm
emission maximum (in C1CCOC1): 602 nm
emission maximum (in C1COCCO1): 554 nm
emission maximum (in CCCCCC): 480 nm
emission maximum (in CCCCCCCCO): 596 nm
emission maximum (in CCCCOCCCC): 524 nm
emission maximum (in CCOC(C)=O): 590 nm
emission maximum (in CCOCC): 550 nm
emission maximum (in Cc1ccccc1): 530 nm
emission maximum (in ClC(Cl)(Cl)Cl): 500 nm
emission maximum (in ClC(Cl)Cl): 596 nm
emission maximum (in ClCCl): 618 nm

SMILES: CC(C)(C)c1ccc2c(c1)c1cc(C(C)(C)C)ccc1n2-c1cc[n+]2c(c1)-c1ccccc1O[B-]2(F)F
emission maximum (in Cc1ccccc1): 473 nm
emission maximum (in O=P(c1ccccc1)(c1ccccc1)c1ccccc1Oc1ccccc1P(=O)(c1ccccc1)c1ccccc1): 488 nm

SMILES: Oc1ccccc1/C=N/c1ccc(Cn2cncn2)cc1
emission maximum (in C1CCOC1): 363.99 nm
emission maximum (in C1COCCO1): 324 nm
emission maximum (in CC#N): 428.01 nm
emission maximum (in CC(C)=O): 381 nm
emission maximum (in CC(C)O): 367 nm
emission maximum (in CCCCCC): 314 nm
emission maximum (in CCCCO): 368 nm
emission maximum (in CCO): 407 nm
emission maximum (in CCOC(C)=O): 357 nm
emission maximum (in CCOCC): 346 nm
emission maximum (in CN(C)C=O): 397.99 nm
emission maximum (in CO): 430 nm
emission maximum (in CS(C)=O): 437.01 nm
emission maximum (in Cc1ccccc1): 326 nm
emission maximum (in ClCCl): 363 nm

SMILES: O=C(c1ccc(/C(=C(/c2ccccc2)c2ccc(C(=O)c3ccc(-n4c5ccccc5c5ccccc54)cc3)cc2)c2ccccc2)cc1)c1ccc(-n2c3ccccc3c3ccccc32)cc1
emission maximum (in C1CCOC1): 502 nm

SMILES: CC(C)(C)c1cc(C(C)(C)C)c(-c2nnc(-c3ccc(-n4c5ccccc5c5ccccc54)cc3)o2)c(C(C)(C)C)c1
emission maximum (in CCO): 432 nm
emission maximum (in Cc1ccccc1): 376 nm

SMILES: COCCOCCOCCOc1ccc(OCCOCCOCCOC)c(C=O)c1
emission maximum (in CC(C)(C)O): 444 nm
emission maximum (in CC(C)CO): 453 nm
emission maximum (in CC(C)O): 455 nm
emission maximum (in CCCCO): 458 nm
emission maximum (in CCCO): 459 nm
emission maximum (in CCO): 462 nm
emission maximum (in CN(C)C=O): 423 nm
emission maximum (in CNC=O): 458 nm
emission maximum (in CO): 468 nm
emission maximum (in NC=O): 463 nm
emission maximum (in O): 485 nm

SMILES: NCCc1c[nH]c2ccc(O)cc12
emission maximum (in CC#N): 332 nm
emission maximum (in CC(C)O): 335 nm
emission maximum (in CO): 334 nm
emission maximum (in O): 337 nm

SMILES: CCOC(=O)COc1ccc(/C=C/C2=C3c4ccccc4C(c4[nH]c(C)cc4C)=[N+]3[B-](F)(F)n3c(C)cc(C)c32)cc1
emission maximum (in C1CCOC1): 684 nm
emission maximum (in CC#N): 681 nm
emission maximum (in CCCCCC): 679 nm
emission maximum (in CO): 680 nm
emission maximum (in Cc1ccccc1): 690 nm
emission maximum (in ClCCl): 687 nm

SMILES: COc1ccc(C2=C(c3ccc(-c4ccccc4)cc3)C(c3ccccc3)=[N+]3C2=Nc2c(-c4ccc(OC)cc4)c(-c4ccc(-c5ccccc5)cc4)c(-c4ccccc4)n2[B-]3(F)F)cc1
emission maximum (in Cc1ccccc1): 716 nm

SMILES: CN1CCN(c2ccc3c4c(cccc24)C(=O)c2ccccc2-3)CC1
emission maximum (in C1CCCCC1): 533 nm
emission maximum (in C1CCOC1): 593 nm
emission maximum (in C1COCCO1): 584 nm
emission maximum (in CC1COC(=O)O1): 619 nm
emission maximum (in CC#N): 619 nm
emission maximum (in CC(C)=O): 615 nm
emission maximum (in CCCCCCCCO): 626 nm
emission maximum (in CCCCCO): 635 nm
emission maximum (in CCCCO): 632 nm
emission maximum (in CCCO): 637 nm
emission maximum (in CCO): 640 nm
emission maximum (in CCOC(C)=O): 595 nm
emission maximum (in CN(C)C=O): 621 nm
emission maximum (in CO): 645 nm
emission maximum (in CS(C)=O): 624 nm
emission maximum (in Cc1ccccc1): 569 nm
emission maximum (in ClC(Cl)Cl): 601 nm

SMILES: N#Cc1c(-n2c3ccccc3c3ccccc32)c(-n2c3ccccc3c3ccccc32)c(C#N)c(-n2c3ccccc3c3ccccc32)c1-n1c2ccccc2c2ccccc21
emission maximum (in Cc1ccccc1): 535 nm

SMILES: O=C(/C=C(\O)c1ccc(N2c3ccccc3Oc3ccccc32)cc1)c1ccc(N2c3ccccc3Oc3ccccc32)cc1
emission maximum (in Cc1ccccc1): 594 nm
emission maximum (in c1ccc2c(c1)c1ccccc1n2-c1ccc(-c2ccc(-n3c4ccccc4c4ccccc43)cc2)cc1): 550.32 nm

SMILES: c1ccc(-c2nc(-c3ccccc3)nc(-c3ccc(-n4c5ccc(-c6ccc7sc8ccccc8c7c6)cc5c5cc(-c6ccc7sc8ccccc8c7c6)ccc54)cc3)n2)cc1
emission maximum (in CCOC(C)=O): 473 nm
emission maximum (in CN(C)C=O): 531 nm
emission maximum (in Cc1ccccc1): 437 nm

The remaining lines, values ahead:

emission maximum (in C1CCCCC1): 497 nm
emission maximum (in CC#N): 533 nm
emission maximum (in CCO): 542 nm
emission maximum (in c1ccccc1): 519 nm
SMILES: CNc1cccc2c1C(=O)c1ccccc1-2

emission maximum (in C1CCOC1): 440 nm
SMILES: COc1ccc2c(c1)c1ccc3cccc4c5cccc6oc(=O)c2c(c65)c1c34

emission maximum (in ClC(Cl)Cl): 556 nm
SMILES: CCC1=C(C)C2C(c3ccc(-c4ccc(-c5nc6c7ccccc7c7ccccc7c6n5-c5ccc(C(C)(C)C)cc5)cc4)cc3)c3c(C)c(CC)c(C)n3[B-](F)(F)[N+]2=C1C (centres undefined)

emission maximum (in CCO): 445 nm
SMILES: Cc1ccc(C(=O)OCc2ccc3c4cccc5cccc(c6cccc2c63)c54)cc1

emission maximum (in CCO): 644 nm
SMILES: CC/[NH+]=c1\cc2oc3cc(NCCC(=O)NC(C)C(=O)OC)c4ccccc4c3nc-2cc1C (centres undefined)

emission maximum (in CO): 738 nm
emission maximum (in O): 736 nm
SMILES: CN(C)c1ccc2c(c1)[Si](C)(C)C1=CC(=[N+](C)C)C=CC1=C2C#Cc1ccccc1

emission maximum (in CC#N): 405 nm
SMILES: CN(C)c1ccc(-n2c(-c3ccncc3)nc3nccnc32)cc1

emission maximum (in C1COCCO1): 447 nm
SMILES: O=C1OC(c2ccccc2)=N/C1=C\c1ccccc1

emission maximum (in C1CCOC1): 591 nm
emission maximum (in CCCCCC): 514 nm
emission maximum (in ClCCl): 608 nm
emission maximum (in c1ccccc1): 560 nm
SMILES: O=C1OC(=O)c2ccc(N(c3ccccc3)c3c4ccccc4cc4ccccc34)c3cccc1c23

emission maximum (in C1CCCCC1): 513 nm
emission maximum (in CC#N): 604 nm
emission maximum (in CCO): 667 nm
emission maximum (in c1ccccc1): 544 nm
SMILES: Nc1cccc2c1-c1ccccc1C2=O

emission maximum (in CN(C)C=O): 687 nm
SMILES: COC(=O)C(N)Cc1ccc(O[Si]2(Oc3ccc(CC(N)C(=O)OC)cc3)n3c4c5ccccc5c3/N=C3N=C(/N=c5/c6ccccc6/c(n52)=N/C2=NC(=N\4)/c4ccccc42)c2ccccc2\3)cc1 (centres undefined)

emission maximum (in C1COCCO1): 561.95 nm
SMILES: CCC12C(=C3C(=C4c5ccc(-c6ccc(C(C)=O)cc6)cc5S(=O)(=O)C41CC)C(F)(F)C(F)(F)C3(F)F)c1ccc(-c3ccc(C(C)=O)cc3)cc1S2(=O)=O (centres undefined)

emission maximum (in C1COCCO1): 386 nm
emission maximum (in CC#N): 388 nm
emission maximum (in CO): 412 nm
emission maximum (in ClCCl): 379 nm
emission maximum (in O): 420 nm
SMILES: COC(=O)c1nc2cnc(N)nc2n1Cc1ccccc1
